Experimental data reported in patent publication US6458760B1, “Method for treating tissue damaged from ischemia” (Henry Ford Health System, priority 1998, dated 2002).
Non-standard residues stand in square brackets, D forms with d. Residues, ends and D or L forms follow the SMILES beside them. *: point of attachment. Phe(4-NO2) = N[CH](Cc1ccc([N+](=O)[O-])cc1)C(=O)O; Cit = NC(=O)NCCC[CH](N)C(=O)O; Cbz = O=C(OCc1ccccc1)*; CHN2 = [N-]=[N+]=C*; Bn = c1ccc(C*)cc1

What was measured:
Format in all cases: biochemical
[1] = molecular target: Cathepsin B (Homo sapiens, UniProt P07858); test: Cathepsin B inactivation rate, fluorimetric progress curves; conditions: second order inactivation rate constant corrected for substrate; pH 5.4, 30° C.
Description: (§1) (“Tian, et al.”) the contents of which are incorporated by reference. More specifically, the value of kobs is given by the slope of a plot of ln [P]∞−[p]t versus t (time). The apparent second-order rate contact for inactivation, k2app was calculated as kobs/[I]. The inactivation-rates (kobs) in the presence of substrate and for different inhibitor concentrations for calpain, cathepsin B and cathepsin L are determined according to the method of Tian, et al. However, k2app is corrected for the presence of substrate (s) to give the second order rate constant k^12app, calculated as k^12app=k2app (1+[s]/Km).
Cathepsins B and L were preactivated with […] DTT in 50 mM sodium acetate buffer, pH 5.4, 1 mM EDTA for 2 h at 4° C. and assayed in the same buffer with 0.01% Brij [poly(oxyethylene) glycol dodecyl ether]. […] The inhibitors (0.1-1 μM) and substrate were added to the reaction mixture to incubate for 5 min in a cuvette thermostated at 30° C. Then, approximately 0.4 nM and 0.1 nM final concentration of cathepsin B and cathepsin L, respectively, were used to initiate the reaction. […] The progress curves were analyzed over at least 3 half lives to calculate the rate constants of inactivation in accordance with the procedure described by Crawford, C. Mason, R. W., Wilkström, P., and Shaw, E. in an article entitled “The design of peptidyldiazomethane inhibitors to distinguish between the cysteine proteinases calpain II, cathepsin L and cathepsin B.”, Biochem. J. 1988, 253, 751-758, the contents of which are incorporated by reference. The rates of inactivation of various substrates are tabulated hereinbelow.

[2] = molecular target: Cathepsin L (Homo sapiens, UniProt P07711); test: Cathepsin L inactivation rate, fluorimetric progress curves; conditions: second order inactivation rate constant corrected for substrate; substrate Z-Phe-Arg-AMC; pH 5.4, 30° C.
Description: as §1
Cathepsins B and L were preactivated with […] DTT in 50 mM sodium acetate buffer, pH 5.4, 1 mM EDTA for 2 h at 4° C. and assayed in the same buffer with 0.01% Brij [poly(oxyethylene) glycol dodecyl ether]. 5 μM (final concentration) CBZ-Phe-Arg-AMC was used as substrate for both for cathepsins B and L. The inhibitors (0.1-1 μM) and substrate were added to the reaction mixture to incubate for 5 min in a cuvette thermostated at 30° C. Then, approximately 0.4 nM and 0.1 nM final concentration of cathepsin B and cathepsin L, respectively, were used to initiate the reaction. […] The progress curves were analyzed over at least 3 half lives to calculate the rate constants of inactivation in accordance with the procedure described by Crawford, C. Mason, R. W., Wilkström, P., and Shaw, E. in an article entitled “The design of peptidyldiazomethane inhibitors to distinguish between the cysteine proteinases calpain II, cathepsin L and cathepsin B.”, Biochem. J. 1988, 253, 751-758, the contents of which are incorporated by reference. The rates of inactivation of various substrates are tabulated hereinbelow.

[3] = system: Calpain; test: Calpain inactivation rate, fluorimetric progress curves; conditions: second order inactivation rate constant corrected for substrate; substrate Suc-Leu-Tyr-AMC; pH 7.5, 37° C.
Description: as §1
Calpain was assayed fluorimetrically in 1 ml of 50 mM Tris/acetate buffer, pH 7.5, containing 5 mM CaCl2, 2.5 mM DTT(dithiothreitol), 0.1% Triton X-100 at 37° C., using 2.5×10^−4 M Suc-Leu-Tyr-aminomethylcoumarin (AMC) (Novabiochem, Switzerland) as substrate and 50nM (final concentration) of enzyme. The appearance of the 7-amino-4 methylcoumarin product was recorded continuously with a Perkin Elmer 650-10S spectrofluorimeter, a SPEX Fluorolog 1680, or SLM 8000C fluorescence spectrometer with excitation at 370 nm and emission at 460 nm.
Typically, 5 μL of the substrate solution (50 mM stock in DMSO) was added to 1 mL of buffer. Varying concentrations of the inhibitor solution (10 μL of a DMSO […] solution) were added, followed by 10 μL of calpain in the assay buffer. After allowing the reaction mixture to incubate for 2-5 min, during which time a steady baseline level of fluorescence was measured, calcium was added in a 10-μL volume to initiate hydrolysis of the fluorogenic substrate, and the resulting increase in fluorescence was monitored continuously. When inhibitors were tested at very low concentrations, the enzyme concentration was reduced to maintain a minimum of a 10-fold excess of inhibitor over enzyme.

Chain of Cathepsin L (P07711 114-333, species assumed): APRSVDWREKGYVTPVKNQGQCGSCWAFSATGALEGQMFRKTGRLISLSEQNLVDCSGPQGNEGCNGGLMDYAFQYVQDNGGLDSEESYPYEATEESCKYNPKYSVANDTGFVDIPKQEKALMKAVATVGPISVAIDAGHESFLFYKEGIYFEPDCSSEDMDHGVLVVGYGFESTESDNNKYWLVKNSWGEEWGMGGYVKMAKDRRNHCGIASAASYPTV

| Compound | Cathepsin B k′2app [1] | Cathepsin L k′2app [2] | Calpain k′2app [3] |
| --- | --- | --- | --- |
| CC(OC(C)(C)C)C(NC(=O)C(Cc1ccccc1)NC(=O)OCc1ccccc1)C(=O)C=[N+]=[N-] (stereo not shown) [CBZ-Phe-Thr(OtBu)-CHN2, benzyloxycarbonyl-Phe-Thr(O-t-Bu)-CHN2] | 160 M^−1S^−1 | 60,000 M^−1S^−1 |  |
| CSCCC(NC(=O)C(CC(C)C)NC(=O)OCc1ccccc1)C(=O)C=[N+]=[N-] (stereo not drawn) [CBZ-Leu-Met-CHN2, benzyloxycarbonyl-Leu-Met-CHN2] (Cbz-Leu-Met-CHN2; configuration not given here) | 4,060 M^−1S^−1 | 212,000 M^−1S^−1 |  |
| [N-]=[N+]=CC(=O)[C@H](Cc1ccccc1)NC(=O)[C@H](Cc1ccccc1)NC(=O)OCc1ccccc1 [CBZ-Phe-Phe-CHN2, benzyloxycarbonyl-Phe-Phe-CHN2] (Cbz-Phe-Phe-CHN2) | 350 M^−1S^−1 | 140,000 M^−1S^−1 |  |
| CC(C)CC(NC(=O)OCc1ccccc1)C(=O)NC(Cc1ccc(O)cc1)C(=O)C=[N+]=[N-] (stereo not drawn) [CBZ-Leu-Tyr-CHN2, benzyloxycarbonyl-Leu-Tyr-CHN2] (Cbz-Leu-Tyr-CHN2; configuration not given here) | <50 M^−1S^−1 | 1,500,000 M^−1S^−1 | 1,470 M^−1S^−1 |
| CC(NC(=O)C(Cc1ccc(I)cc1)NC(=O)OCc1ccccc1)C(=O)C=[N+]=[N-] (stereo not shown) [CBZ-Phe(I)-Ala-CHN2, benzyloxycarbonyl-Phe (I) -Ala-CHN2] | 980 M^−1S^−1 | 130,000 M^−1S^−1 |  |
| benzyloxycarbonyl-Phe-Ala-CHN2 [CBZ-Phe-Ala-CHN2] | 1,200 M^−1S^−1 | 160,000 M^−1S^−1 | <5 M^−1S^−1 |
| [N-]=[N+]=CC(=O)C(Cc1ccc([N+](=O)[O-])cc1)NC(=O)C(Cc1ccccc1)NC(=O)OCc1ccccc1 (stereo not drawn) [CBZ-Phe-Phe(pNO2)-CHN2, benzyloxycarbonyl-Phe-Phe (p-N02) -CHN2] (Cbz-Phe-[Phe(4-NO2)]-CHN2; configuration not given here) | 50 M^−1S^−1 | 190,000 M^−1S^−1 |  |
| CC(C)CC(NC(=O)OCc1ccccc1)C(=O)NC(Cc1c[nH]c2ccccc12)C(=O)C=[N+]=[N-] (stereo not drawn) [CBZ-Leu-Trp-CHN2, benzyloxycarbonyl-Leu-Trp-CHN2] | <50 M^−1S^−1 | 12,000 M^−1S^−1 |  |
| CC(C)C[C@H](NC(=O)OCc1ccccc1)C(=O)N[C@@H](CC(C)C)C(=O)N[C@@H](Cc1ccc(O)cc1)C(=O)C=[N+]=[N-] [CBZ-Leu-Leu-Tyr-CHN2, benzyloxycarbonyl -Leu-Leu-Tyr-CHN2] (Cbz-Leu-Leu-Tyr-CHN2) | 1,300 M^−1S^−1 | 1,500,000 M^−1S^−1 | 230,000 M^−1S^−1 |
| [N-]=[N+]=CC(=O)C(CSCc1ccccc1)NC(=O)C(Cc1ccccc1)NC(=O)OCc1ccccc1 (stereo not drawn) [CBZ-Phe-Cys(SBnz1)-CHN2, benzyloxycarbonyl-Phe-Cys-(SBz)-CHN2] (Cbz-Phe-Cys(Bn)-CHN2; configuration not given here) | 30,000 M^−1S^−1 | 390,000 M^−1S^−1 |  |
| [N-]=[N+]=CC(=O)C(CCCNC(N)=O)NC(=O)C(Cc1ccccc1)NC(=O)OCc1ccccc1 (stereo not drawn) [CBZ-Phe-Cit-CHN2, benzyloxycarbonyl-Phe-Cit-CHN2] (Cbz-Phe-[Cit]-CHN2; configuration not given here) | 6,700 M^−1S^−1 | 1,800,000 M^−1S^−1 |  |
